The record followed here is patent publication US10172899B2, “Composition for preventing, treating and improving of voiding dysfunction comprising extract from Piper longum L” (priority 2014, dated 2019).

Assay [1] concerns CYP-induced cystitis rat model. Description: Cystometry in CYP-induced cystitis model after dosing for 3 days (Example 6.2). The class given is in vivo. To be noted: extract 200 mg/kg from 3 days before cystometry; oxybutynin 0.3 mg/kg via caudal vein on the day. Here is the method:
65 of specific pathogen-free (SPF) SD female rats were purchased from ORIENT (Korea) and used. Day and night were controlled by a 12 hour cycle, and they were allowed to access to food and water freely.
(§1) To measure bladder pressure, bladder capacity and voiding volume, which are parameters for identifying improvement of voiding dysfunction, cyclophosphamide (150 mg/kg) was once intraperitoneally administered to rats excluding a normal control group to induce irritable bladder symptoms at 3 days before cystometry. From 3 Days before cystometry, a solvent (DMSO/10% Cremophor EL=1:9, vol/vol) had been administrated to a solvent control group, and 95% by volume of aqueous ethanol solution extract of Piper Longum L. fruits prepared in Preparation Example 4.1 had been administrated to an experimental group at 200 mg/kg. In addition, oxybutynin as a positive control group was injected via a caudal vein at 0.3 mg/kg on the day of experiment.
(§2) For cystometry and injection of a physiological saline solution, instruments for cystometry and insertion of a bladder vessel were the same as in the above Example 5.2, and voiding volume and residual volume were recorded by sampling urine in a 1.5 ml tube and measuring its weight.
The basal pressure (BP), threshold pressure (TP), micturition pressure (MP) and micturition interval (MI) which are defined as in the above Example 5.2. In addition, a voiding volume being an parameter of volume parameter was defined by sampling urine in a 1.5 ml tube on the last voiding during urodynamic measurements and measuring its weight. After completing micturition, a residual volume was defined by placing the catheter inserted into bladder at the lower portion than the rat and measuring the weight of the obtained physiological saline. A bladder capacity (BC) was calculated by combining the measured residual volume (RV) and voiding volume (VV) of the rat.
The voiding cycles were measured for 120 minutes, and the average values of each parameter were calculated by selecting the most representative 5 continuous cycles among the measured voiding cycles.

The target in the next assay is T1, muscarinic M2 receptor (Homo sapiens, UniProt P08172).
T1 construct: The human bladder smooth muscle Cells (hBdSMC) where the muscarinic M2 receptor had been expressed were purchased from Lonza; host or cells: human bladder smooth muscle cells (hBdSMC)
T1 sequence (P08172 1-466): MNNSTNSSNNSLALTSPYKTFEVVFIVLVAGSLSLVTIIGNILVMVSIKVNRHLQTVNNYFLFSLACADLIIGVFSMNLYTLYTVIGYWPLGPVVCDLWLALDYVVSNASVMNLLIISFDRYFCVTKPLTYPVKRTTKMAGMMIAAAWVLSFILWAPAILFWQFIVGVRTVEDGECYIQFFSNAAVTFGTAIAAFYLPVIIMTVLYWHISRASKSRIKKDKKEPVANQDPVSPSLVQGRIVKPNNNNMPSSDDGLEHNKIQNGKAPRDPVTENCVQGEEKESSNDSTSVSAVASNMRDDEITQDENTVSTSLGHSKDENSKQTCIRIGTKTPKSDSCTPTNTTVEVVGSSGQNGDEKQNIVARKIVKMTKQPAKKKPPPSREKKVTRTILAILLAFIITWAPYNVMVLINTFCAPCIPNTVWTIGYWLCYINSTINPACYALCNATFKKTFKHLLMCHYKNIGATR
Description: Relief of acetylcholine inhibition of forskolin-induced cAMP in human bladder smooth muscle cells (ELISA). The class given is cell-based. To be noted: 10 μM, with Forskolin 10 μM + ACh 10 μM. An excerpt:
It is known that when muscarinic M2 receptor, which is one of GPCR (G protein-coupled receptors), is coupled with acetylcholine being an agonist it inhibits activity of adenylyl cyclase enzyme to decrease a concentration of cAMP in cells, in which if the amount of cAMP increases, detrusor is relaxed, or otherwise if the amount of cAMP decreases, detrusor is contracted. Therefore, in confirming improvement of voiding dysfunction, it is important to identify an effect of being capable of increasing or decreasing the amount of cAMP. Accordingly, it was identified whether or not the extract of Piper Longum L. has activity of inhibiting muscarinic receptor that may inhibit decrease of a concentration of cAMP by acetylcholine, by pre-treating 95% by volume of aqueous solution of ethanol extract of Piper Longum L., treating it with acetylcholine which may serve as an activator of muscarinic M2 receptor to induce decrease of a concentration of cAMP, and treating it with Forskolin that may raise a concentration of cAMP in cells. More specifically, the procedure is as follows.
The human bladder smooth muscle Cells (hBdSMC) where the muscarinic M2 receptor had been expressed were purchased from Lonza (cambrex), and used. […] The amount of cAMP in cells was evaluated by measuring absorbance (408 nm) with an ELISA kit from the supernatant taken after centrifuging cells dissolved in 0.1M HCl.
(ELISA stands for enzyme-linked immunosorbent assay.)

Assay [2] concerns CYP-induced cystitis rat model. Kind of assay: Cystometry in CYP-induced cystitis model, ethanol and water extracts (Example 6.3). Format: in vivo. The note with it: extracts 200 mg/kg, oxybutynin 0.3 mg/kg. Here is the method:
as §1, §2
The basal pressure (BP), threshold pressure (TP), micturition pressure (MP) and micturition interval (MI) which are defined as in the above Example 5.2. […] A bladder capacity (BC) was calculated by combining the measured residual volume (RV) and voiding volume (VV) of the rat. […]

Assay [3] concerns spontaneously hypertensive rat (SHR). Kind of assay: Urodynamic study in SHR under un-anesthesia. The class given is in vivo. Here is the method: 12˜18 Week-old male SHRs were purchased from Charles River (Japan) and used. Day and night were controlled by a 12 hour cycle, and they were allowed to access to food and water freely. All the rats had to urinate at 3-5 cycles under a condition with no administration. The micturition parameters of rats under a condition with no administration were considered as control groups for urodynamic parameters, while the rats, to which the water extract of Piper Longum L. fruits prepared in Preparation Example 4.2 was directly administered into gastrointestinal tracts at 300 mg/kg via catheters coupled to stomachs, became experimental groups. As a positive control group, rats administered with tolterodine at 1 mg/kg were used. The Piper Longum L. water extract and tolterodine-dosing groups were each set by 6 rats.
To measure bladder pressure, bladder capacity, voiding volume and micturition interval, which are parameters for identifying improvement of voiding dysfunction, insertion of a bladder tube and a vessel for measuring an abdominal pressure was carried out in SHR models. For cystometry and injection of a physiological saline solution, a rat was incised in center of its lower abdomen 3 days before the day of measuring urodynamic parameters, and a cuffed polyethylene catheter with a cuff (PE-50, Becton Dickinson, Parsippany, USA) was fixed on its bladder dome with purse-string suture. In addition, a polyethylene catheter (PE-10, Becton Dickinson, Parsippany, USA) with a balloon for measuring abdominal pressure was fixed on the bladder, and another polyethylene catheter (PE-10, Becton Dickinson, Parsippany, USA) was fixed following being inserted in the gastrointestinal tract. The above catheters were passed through beneath skin, and then fixed on dorsal skin, the ends of which were closed by applying heat. An un-anesthetized rat being free was placed in a metabolic cage at 3 days after inserting a bladder tube and a vessel for measuring an abdominal pressure. The tube on the back of its neck was coupled to a microinjection pump (PHD22/2000 pump; Harvard Apparatus) and a pressure transducer (Research Grade Blood Pressure Transducer; Harvard Apparatus, Holliston, USA) with a T-tube, and then intravesical pressures were measured, with injecting the physiological saline solution at room temperate at a speed of 10 ml/hour. It is to measure intravesical pressures in the rat using a principle that when a predetermined volume of physiological saline solution is filled in the bladder, it is contracted to urinate. The abdominal pressure was measured by coupling the vessel for measuring abdominal pressure to the other pressure transducer. Also, to measure a voiding volume being an indicator of volume parameter, the voiding volume was measured from a urine amount collected in a urine collector cup (fluid collector) coupled to a force displacement transducer (Research Grade Isometric Transducer; Harvard Apparatus).
Beginning to measure urodynamic parameters before administration of the extracts of Piper Longum L. and tolterodine, records of 3 to 5 stabilized micturition cycles were obtained. Then, the Piper Longum L. extracts and tolterodine were orally administered after decoupling the catheter. The catheters were again coupled thereto 20 minutes after oral administration of drugs, and voiding cycles and urodynamic study were carried out by having the rat to urinate 3 to 5 times. The average values of each parameter were measured by selecting the most representative 3 continuous cycles from voiding cycles measured before and after administration of drug.
In 3 repeated voiding cycles, a basal pressure (BP), which is an parameter of intravesical pressure, is the lowest pressure in cystometry, a threshold pressure (TP) is a pressure immediately before micturition contraction, and a micturition pressure (MP) means the maximum bladder pressure represented on voiding. […]

Where [4] appears, read: After Dosing, water extract 300 mg/kg, tolterodine 1 mg/kg.
The mark [5] stands for this setting: after vs before dosing, increase.

For the compound `CCN(CC)CC#CCOC(=O)C(O)(c1ccccc1)C1CCCCC1` (stereo not drawn) [Oxybutynin, oxybutynin], in assay [1], the “BC (bladder capacity)” value was determined as 0.46 ± 0.14 mL, the “BP (basal pressure)” value was determined as 9.7 ± 3.1 cm H2O, the “MI (micturition interval)” value came to 221.54 ± 75.20 s and the “MP (micturition pressure)” value was 29.2 ± 7.9 cm H2O. Further, in assay [1], the “RV (residual volume)” value stood at 0.30 ± 0.13 mL, the “TP (threshold pressure)” value came out at 17.6 ± 4.3 cm H2O and the “VV (voiding volume)” value stood at 0.16 ± 0.08 mL. In addition, on muscarinic M2 receptor, the cAMP worked out at 28.21 pmol/mL and the “cAMP, % of forskolin” value worked out at 91.39%. Also, in assay [2], the “MI (micturition interval)” value stood at 248.50 ± 144.43 s and the “VV (voiding volume)” value is 0.24 ± 0.15 mL.

Take `Cc1ccc(O)c([C@H](CCN(C(C)C)C(C)C)c2ccccc2)c1` [Tolterodine, tolterodine]: in assay [3] (setting [4]), the “BC (bladder capacity)” value turned out to be 0.41 ± 0.03 mL, the “BP (basal pressure)” value is listed as 4.8 ± 1.1 cmH2O, the “MI (micturition interval)” value turned out to be 365.4 ± 31.8 s and the “MP (micturition pressure)” value was determined as 50.5 ± 1.7 cmH2O. In assay [3] (setting [4]), the “RV (residual volume)” value was 0 ± 0 mL, the “TP (threshold pressure)” value is 18.1 ± 1.7 cmH2O and the “VV (voiding volume)” value was 0.41 ± 0.03 mL. In assay [3] (setting [5]), the “BC, Percentage Change (%)” value was determined as 36.7% ↑; the “MI, Percentage Change (%)” value turned out to be 46.4% ↑; the “VV, Percentage Change (%)” value was 36.7% ↑.
